Patent EP0936218B1, “BENZIMIDAZOLE DERIVATIVES” (MOCHIDA PHARMACEUTICAL CO., LTD., priority 1996, dated 1998)

Tests used:
[1] = test system: intraperitoneal eosinophilia; assay: Action on intraperitoneal eosinophilia model mice (sensitized with swine roundworm extract); assay type: in vivo, BALB/c male mice; conditions: oral, once a day, 10 times, BALB/c mice
Procedure: Using five animals per group of BALB/c male mice (about 25 g in body weight), 0.11 mL of physiological saline containing 0.1 mg of swine roundworm extract was administered into the peritoneal cavity of each mouse to sensitize. The same treatment was repeated 7 days after the administration and, 3 days thereafter, each animal was sacrificed by phlebotomy, 3 mL of physiological saline containing 1% dipotassium ethylenediaminetetraacetate (EDTA) was administered by intraperitoneal injection and its abdominal region was massaged for about 30 seconds. The abdominal region was incised to collect intraperitoneal fluid which was subsequently centrifuged at 130 x g for 10 minutes, and the resulting precipitate was mixed with 500 µl of fetal calf serum containing 1% EDTA to prepare a cell suspension. A portion of the cell suspension was daubed on a slide glass using a spinner to carry out Diff-Quik staining, and then total leukocytes and eosinophils were counted to calculate the ratio of eosinophils in the total leukocytes. The number of total leukocytes in the cell suspension was measured using an automatic blood cell counter. The number of eosinophils in the cell suspension was calculated by multiplying the ratio of eosinophils in the total leukocytes by the number of total leukocytes.
Each of the compounds to be tested was suspended in 5% acacia aqueous solution and orally administered once a day for a total of 10 times starting immediately after the initial sensitization (test compound-administered group). Also, 5% acacia aqueous solution was orally administered to a group of mice in which sensitization and administration of test compounds were not carried out (non-treated group) and another group of mice in which sensitization was carried out but test compounds were not administered (control group).
The dose of each compound to be tested and the intraperitoneal eosinophilia inhibition rate calculated by the following formula are shown in Table 1. Eosinophilia inhibition rate (%) = {1 - (test compound- administered group - non-treated group)/(control group - non- treated group)} x 100 [formula]

BALB/c male mice = conditions: mouse, in vivo, po, 100 mg/kg/day
Excerpt: Toxicity of compounds of the present invention was examined.

Structure (SMILES)	mortal case (BALB/c male mice)	Intraperitoneal eosinophilia inhibition rate (%) ([1]; dose 10 mg/kg/day)	further results
O=C(O)CC(=O)c1cccc2nc(CCc3ccccc3)[nH]c12 [Example 1, 3-(2-(2-phenylethyl)benzimidazol-4-yl)-3-oxopropanoic acid]	no mortal case was found		Intraperitoneal eosinophilia inhibition rate (%) ([1]; dose 3 mg/kg/day): 67%; Intraperitoneal eosinophilia inhibition rate (%) ([1]; dose 30 mg/kg/day): 78%
COC(=O)CC(=O)c1cccc2nc(CCc3ccccc3)[nH]c12 [Example 2, methyl 3-(2-(2-phenylethyl)benzimidazol-4-yl)-3-oxopropanoate]	no mortal case was found		Intraperitoneal eosinophilia inhibition rate (%) ([1]; dose 100 mg/kg/day): 42%
CCOC(=O)CC(=O)c1cccc2nc(CCc3ccccc3)[nH]c12 [Example 3, ethyl 3-(2-(2-phenylethyl)benzimidazol-4-yl)-3-oxopropanoate]		67%	Intraperitoneal eosinophilia inhibition rate (%) ([1]; dose 30 mg/kg/day): 75%
COC(=O)CC(O)c1cccc2nc(CCc3ccccc3)[nH]c12 (stereo not drawn) [Example 5, methyl 3-(2-(2-phenylethyl)benzimidazol-4-yl)-3-hydroxypropanoate]	no mortal case was found		Intraperitoneal eosinophilia inhibition rate (%) ([1]; dose 100 mg/kg/day): 62%
CCOC(=O)CC(O)c1cccc2nc(CCc3ccccc3)[nH]c12 (stereo not drawn) [Example 6, ethyl 3-(2-(2-phenylethyl)benzimidazol-4-yl)-3-hydroxypropanoate]		59%	Intraperitoneal eosinophilia inhibition rate (%) ([1]; dose 3 mg/kg/day): 35%
O=C(O)CC(O)c1cccc2nc(CCc3ccccc3)[nH]c12 (stereo not drawn) [Example 7, 3-(2-(2-phenylethyl)benzimidazol-4-yl)-3-hydroxypropanoic acid]	no mortal case was found		Intraperitoneal eosinophilia inhibition rate (%) ([1]; dose 0.3 mg/kg/day): 55%
CCOC(=O)CC(=O)c1cccc2c1nc(CCc1ccccc1)n2C [Example 10, ethyl 3-(1-methyl-2-(2-phenylethyl)benzimidazol-4-yl)-3-oxopropanoate]	no mortal case was found		
CC(=O)OCC(=O)[C@@]1(O)CC[C@H]2[C@@H]3CCC4=CC(=O)C=C[C@]4(C)[C@H]3[C@@H](O)C[C@@]21C [Prednisolone acetate, 11β,17α,21-trihydroxypregna-1,4-diene-3,20-dione 21-acetate, reference compound]		61 - 85%	
